Results reported in patent publication US20100173888A1 (Pfizer Inc, priority 2008, published 2010).
Structures can show the parent of a compound that is named as a salt.

These compounds were tested against human recombinant H-PGDS (Homo sapiens, UniProt O60760) (assay: Fluorescence intensity h-PGDS TBA enzyme assay (PGH2 depletion, MDA/TBA fluorescence)). Details: 1:175,000 human recombinant H-PGDS, 42 second reaction, 3-fold serial dilutions, highest concentration typically 1 μM.
Type: biochemical
Experimental: Fluoresecence Intensity h-PGDSTBA Enzyme Assay
Prostaglandin D Synthase (PGDS) converts the substrate prostaglandin H2 (PGH2) to prostaglandin D2. The depletion of PGH2 was measured via an Fe(II) reduction of the remaining PGH2 to malondialdehyde (MDA) and 12-HHT. The enzyme assay is based on the quantitative formation of a fluorescent complex from the non-fluorescent compounds MDA and 2-thiobarbituric acid (TBA), substantially as described in U.S. patent application publication US-2004/152148 by Lombardt.
The enzyme assay (31 μls) contained 100 mM Tris base pH 8.0, 100 μM MgCl2, 0.1 mg/ml IgG Rabbit serum, 5.0 μM PGH2 (Cayman; ethanol solution, #17020), 2.5 mM L-Glutathione (Sigma; reduced form. #G4251), 1:175,000 human recombinant H-PGDS (from 1 mg/ml), 0.5% DMSO and inhibitor (varying concentration). Three μls of diluted inhibitor (dissolved in DMSO) was plated into a 384-well assay plate followed by a 25 μl addition of an enzyme solution containing h-PGDS, Tris, MgCl2, IgG and L-Glutathione. After preincubation of inhibitor and enzyme solution for 10 minutes at room temperature, the reaction was initiated with a 3 μl addition of substrate solution in 10 mM HCl. The reaction was terminated after 42 second by the addition (3 μl) of stop buffer containing FeCl2 and citric acid. After addition of 45.5 μls of TBA plates were heated for one hour in a 70° C. oven. Plates were cooled at room temperature overnight and read on a plate reader the next day with excitation @ 530 nm and emission @ 565 nm.
IC50' s of inhibitors were calculated with a 4-parameter fit using 11 inhibitor concentrations in duplicate with 3-fold serial dilutions. Controls on each plate included no inhibitor (zero % effect) and an inhibitor 10-fold in excess of its' IC50 (100% effect). The highest inhibitor concentration tested was typically 1 μM.

Chain of human recombinant H-PGDS (O60760 whole entry): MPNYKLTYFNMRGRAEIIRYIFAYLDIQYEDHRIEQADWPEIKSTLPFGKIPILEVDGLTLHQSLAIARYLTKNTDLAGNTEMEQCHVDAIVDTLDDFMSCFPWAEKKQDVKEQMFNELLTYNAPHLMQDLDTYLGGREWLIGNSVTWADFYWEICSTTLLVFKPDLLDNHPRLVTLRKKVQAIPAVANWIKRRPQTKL

In order of rising IC50:
1. O=C(NC1CCC(F)(F)CC1)c1ccc(-c2cccc(F)c2)nc1 [Example 119, N-(4,4-Difluorocyclohexyl)-6-(3-fluorophenyl)nicotinamide]  1.28 nM
2. O=C(NC1CCCCC1O)c1ccc(-c2cccc(F)c2)nc1 (stereo not drawn) [Example 17, 6-(3-Fluorophenyl)-N-(2-hydroxycyclohexyl)nicotinamide]  2.87 nM
3. CCC(O)[C@H]1CC[C@H](NC(=O)c2ccc(-c3cccc(F)c3)nc2)CC1 (stereo partly drawn) [Example 214, 6-(3-Fluorophenyl)-N-[trans-4-(1-hydroxypropyl)cyclohexyl]nicotinamide]  3 nM
4. O=C(N[C@H]1CC[C@@H](C(=O)N2CC[C@H](F)C2)C1)c1ccc(-c2cccc(F)c2)nc1 [Example 159, 6-(3-fluorophenyl)-N-[(1S,3R)-3-{[(3S)-3-fluoropyrrolidin-1-yl]carbonyl}cyclopentyl]nicotinamide]  4.9 nM
5. CN1CCN(C(=O)C2(C#N)CCCC(NC(=O)c3ccc(-c4cccc(F)c4)nc3)C2)CC1 (stereo not drawn) [Example 263, N-{3-Cyano-3-[(4-methylpiperazin-1-yl)carbonyl]cyclohexyl}-6-(3-fluorophenyl)nicotinamide]  5 nM
6. CC(=O)NC(C)[C@H]1CC[C@H](NC(=O)c2ccc(-c3cccc(F)c3)nc2)CC1 (stereo partly drawn) [Example 147, N-[trans-4-(1-Acetamidoethyl]cyclohexyl]-6-(3-fluorophenyl)nicotinamide]  5.7 nM
7. CC(O)[C@H]1CC[C@H](NC(=O)c2ccc(-c3cccc(F)c3)nc2)CC1 (stereo partly drawn) [Example 215, 6-(3-Fluorophenyl)-N-[trans-4-(1-hydroxyethyl)cyclohexyl]nicotinamide]  5.9 nM
8. CC[C@H](O)C(=O)N[C@H]1CC[C@H](NC(=O)c2ccc(-c3cccc(F)c3)nc2)CC1 [Example 113L, 6-(3-fluorophenyl)-N-(trans-4-{[(2S)-2-hydroxybutanoyl]amino}cyclohexyl)nicotinamide]  6.1 nM
9. CC(C)(O)CNC(=O)[C@@H]1CC[C@H](NC(=O)c2ccc(-c3cccc(F)c3)nc2)C1 [Example 171, 6-(3-Fluorophenyl)-N-{(1S,3R)-3-[(2-hydroxy-2-methylpropyl)carbamoyl]cyclopentyl}nicotinamide]  6.3 nM
10. CC[C@@H](O)C(=O)N[C@H]1CC[C@H](NC(=O)c2ccc(-c3cccc(F)c3)nc2)CC1 [Example 113J, 6-(3-fluorophenyl)-N-(trans-4-{[(2R)-2-hydroxybutanoyl]amino}cyclohexyl)nicotinamide]  6.6 nM
11. O=C(N[C@H]1CC[C@H](C(=O)N[C@@H]2CCNC2=O)CC1)c1ccc(-c2cccc(F)c2)nc1 [Example 113B, 6-(3-fluorophenyl)-N-(trans-4-{[(3R)-2-oxopyrrolidin-3-yl]carbamoyl}cyclohexyl)nicotinamide]  7 nM
12. O=C(NC1CCCCC1)c1ccc(-c2cccc(F)c2)nc1 [Example 18, N-Cyclohexyl-6-(3-fluorophenyl)nicotinamide]  7.72 nM
13. O=C(N[C@H]1CC[C@H](C(=O)N[C@@H]2CCOC2)CC1)c1ccc(-c2cccc(F)c2)nc1 [Example 113E, 6-(3-fluorophenyl)-N-{trans-4-[(3R)-tetrahydrofuran-3-ylcarbamoyl]cyclohexyl}nicotinamide]  8.8 nM
14. CS(=O)(=O)NC[C@H]1CC[C@H](NC(=O)c2ccc(-c3cccc(F)c3)nc2)CC1 [Example 150, 6-(3-Fluorophenyl)-N-[trans 4(methanesulfonylaminomethyl)cyclohexyl]nicotinamide]  8.9 nM
15. CC(=O)NC(C)(C)[C@H]1CC[C@H](NC(=O)c2ccc(-c3cccc(F)c3)nc2)CC1 [Example 113P, N-[trans-4-(1-acetamido-1-methylethyl)cyclohexyl]-6-(3-fluorophenyl)nicotinamide]  9.1 nM
16. CC(C)(CO)NC(=O)[C@H]1CCC[C@@H](NC(=O)c2ccc(-c3cccc(F)c3)nc2)C1 (relative stereo) [Example 196]  9.6 nM
17. COCC(=O)N[C@H]1CC[C@H](NC(=O)c2ccc(-c3cccc(F)c3)nc2)CC1 [Example 113N, 6-(3-fluorophenyl)-N-{trans-4-[(methoxyacetyl)amino]cyclohexyl}nicotinamide]  11.5 nM
18. CN(C(=O)[C@H]1CC[C@H](NC(=O)c2ccc(-c3cccc(F)c3)nc2)CC1)C1CCNCC1 [Example 211, 6-(3-Fluorophenyl)-N-{trans-4-[methyl(piperidin-4-yl)carbamoyl]cyclohexyl}nicotinamide]  13 nM
19. CC(C)OCC1(O)CCC(NC(=O)c2ccc(-c3cccc(F)c3)nc2)CC1 (stereo not drawn) [Example 226, 6-(3-Fluorophenyl)-N-[4-hydroxy-4-(isopropoxymethyl)cyclohexyl]nicotinamide]  13.2 nM
20. O=C(N[C@@H]1CCC[C@H](CO)C1)c1ccc(-c2cccc(F)c2)nc1 (relative stereo) [Example 251A]  13.3 nM
21. C[C@H](N)C(=O)N[C@H]1CC[C@H](NC(=O)c2ccc(-c3cccc(F)c3)nc2)CC1 [Example 113R, N-[trans-4-(L-alanylamino)cyclohexyl]-6-(3-fluorophenyl)nicotinamide]  13.8 nM
22. CN(C(=O)[C@@H]1CCC[C@H](NC(=O)c2ccc(-c3cccc(F)c3)nc2)C1)C1CCNCC1 (stereo in doubt) [Example 192, 6-(3-Fluorophenyl)-N-{(1S,3R)-3-[methyl(piperidin-4-yl)carbamoyl]cyclohexyl}nicotinamide]  15.3 nM
23. C[C@H](O)C(=O)N[C@H]1CCC[C@H](NC(=O)c2ccc(-c3cccc(F)c3)nc2)C1 [Example 246, 6-(3-Fluorophenyl)-N-{trans-3-{[(2S)-2-hydroxypropanoyl]amino}cyclohexyl]nicotinamide]  16.2 nM
24. CN1CCN(C(=O)[C@H]2CC[C@@H](NC(=O)c3ccc(-c4cccc(F)c4)nc3)C2)CC1=O [Example 182, 6-(3-Fluorophenyl)-N-[(1R,3S)-3-[(4-methyl-3-oxopiperazin-1-yl)carbonyl]cyclopentyl}nicotinamide]  17.8 nM
25. NCC(=O)N[C@H]1CC[C@H](NC(=O)c2ccc(-c3cccc(F)c3)nc2)CC1 [Example 146, 6-(3-Fluorophenyl)-N-[trans-4-(glycylamino)cyclohexyl]nicotinamide]  21 nM
26. O=C(N[C@H]1CCCC[C@@H]1O)c1ccc(-c2cccc(F)c2)nc1 [Example 25]  22.3 nM
27. O=C(N[C@@H]1CCC[C@H](C(=O)NC2CCNCC2)C1)c1ccc(-c2cccc(F)c2)nc1 (relative stereo) [Example 191, 6-(3-Fluorophenyl)-N-cis-3-(piperidin-4-ylcarbamoyl)cyclohexyl]nicotinamide hydrochloride]  29.2 nM
28. O=C(NC1CCCc2ccccc21)c1ccc(-c2ccc(F)cc2)nc1 (stereo not drawn) [Example 123, 6-(4-Fluorophenyl)-N-(1,2,3,4-tetrahydronaphthalen-1-yl)nicotinamide]  30 nM
29. NC1CCN(C(=O)[C@H]2CC[C@@H](NC(=O)c3ccc(-c4cccc(F)c4)nc3)C2)CC1 [Example 187]  30.7 nM
30. O=C(CO)N[C@H]1CC[C@@H](NC(=O)c2ccc(-c3cccc(F)c3)nc2)CC1 [Example 220, 6-(3-fluorophenyl)-N-[cis-4-(glycoloylamino)cyclohexyl]nicotinamide]  32.7 nM
31. CC(C)(O)[C@H]1CC[C@@H](NC(=O)c2ccc(-c3cccc(F)c3)nc2)C1 [Example 166, 6-(3-Fluorophenyl)-N-[(1R,3S)-3-(1-hydroxy-1-methylethyl)cyclopentyl]nicotinamide]  35.5 nM
32. CN1CCN(C(=O)[C@@]2(C)CCC[C@@H](NC(=O)c3ccc(-c4cccc(F)c4)nc3)C2)CC1 [Example 230, 6-(3-Fluorophenyl)-N-{(1R,3S)-3-methyl-3-[(4-methylpiperazin-1-yl)carbonyl]cyclohexyl}nicotinamide]  37.3 nM
33. CN1CCCCC1C(=O)N[C@H]1CC[C@@H](NC(=O)c2ccc(-c3cccc(F)c3)nc2)CC1 (relative stereo) [Example 217, 6-(3-fluorophenyl)-N-(cis-4-{[(1-methylpiperidin-2-yl)carbonyl]amino}cyclohexyl)nicotinamide]  67.1 nM
34. O=C(N[C@H]1CC[C@@H](O)C1)c1ccc(-c2cccc(F)c2)nc1 (relative stereo) [Example 158, 6-(3-fluorophenyl)-N-[cis-3-hydroxycyclopentyl]nicotinamide]  68.9 nM
35. NCC(=O)N[C@H]1CC[C@@H](NC(=O)c2ccc(-c3cccc(F)c3)nc2)CC1 [Example 224, 6-(3-fluorophenyl)-N-[cis-4-(glycylamino)cyclohexyl]nicotinamide]  74 nM
36. COC(=O)C1(NC(=O)c2ccc(-c3cccc(C)c3)nc2)CC1 [Example 3, Methyl 1-({[6-(3-methylphenyl)pyridin-3-yl]carbonyl}amino)cyclopropanecarboxylate]  246 nM
